Results on three compounds are retold here after publication PMC6437697 (Journal of Medicinal Chemistry, 2019).

Assay in all cases: KINOMEscan
What all share (format): binding
What all share (conditions): read-out: % control activity remaining

The target of test [1] is T1, RPS6KA5(Kin.Dom.2-C-terminal) (Homo sapiens, UniProt O75582).
T1 construct: RPS6KA5(Kin.Dom.2-C-terminal); purchased Eurofins DiscoverX KINOMEscan

In a further test the target is T2, MKK7 (Homo sapiens, UniProt O14733).
T2 construct: purchased Eurofins DiscoverX KINOMEscan
T2 sequence (O14733 1-419): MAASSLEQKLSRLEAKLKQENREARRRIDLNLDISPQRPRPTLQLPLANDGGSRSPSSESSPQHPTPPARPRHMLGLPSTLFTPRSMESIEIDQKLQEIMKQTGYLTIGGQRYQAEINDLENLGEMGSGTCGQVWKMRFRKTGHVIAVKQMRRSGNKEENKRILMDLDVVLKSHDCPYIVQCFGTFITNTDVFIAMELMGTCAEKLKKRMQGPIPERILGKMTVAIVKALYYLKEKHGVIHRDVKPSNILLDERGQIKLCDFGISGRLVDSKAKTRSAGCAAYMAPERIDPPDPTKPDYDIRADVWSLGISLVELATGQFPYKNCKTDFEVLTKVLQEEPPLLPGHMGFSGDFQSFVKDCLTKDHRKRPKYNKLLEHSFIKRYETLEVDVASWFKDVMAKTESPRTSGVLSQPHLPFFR

The target of the next test is T3, SNRK (Homo sapiens, UniProt Q9NRH2).
T3 construct: purchased Eurofins DiscoverX KINOMEscan
T3 sequence (Q9NRH2 1-765): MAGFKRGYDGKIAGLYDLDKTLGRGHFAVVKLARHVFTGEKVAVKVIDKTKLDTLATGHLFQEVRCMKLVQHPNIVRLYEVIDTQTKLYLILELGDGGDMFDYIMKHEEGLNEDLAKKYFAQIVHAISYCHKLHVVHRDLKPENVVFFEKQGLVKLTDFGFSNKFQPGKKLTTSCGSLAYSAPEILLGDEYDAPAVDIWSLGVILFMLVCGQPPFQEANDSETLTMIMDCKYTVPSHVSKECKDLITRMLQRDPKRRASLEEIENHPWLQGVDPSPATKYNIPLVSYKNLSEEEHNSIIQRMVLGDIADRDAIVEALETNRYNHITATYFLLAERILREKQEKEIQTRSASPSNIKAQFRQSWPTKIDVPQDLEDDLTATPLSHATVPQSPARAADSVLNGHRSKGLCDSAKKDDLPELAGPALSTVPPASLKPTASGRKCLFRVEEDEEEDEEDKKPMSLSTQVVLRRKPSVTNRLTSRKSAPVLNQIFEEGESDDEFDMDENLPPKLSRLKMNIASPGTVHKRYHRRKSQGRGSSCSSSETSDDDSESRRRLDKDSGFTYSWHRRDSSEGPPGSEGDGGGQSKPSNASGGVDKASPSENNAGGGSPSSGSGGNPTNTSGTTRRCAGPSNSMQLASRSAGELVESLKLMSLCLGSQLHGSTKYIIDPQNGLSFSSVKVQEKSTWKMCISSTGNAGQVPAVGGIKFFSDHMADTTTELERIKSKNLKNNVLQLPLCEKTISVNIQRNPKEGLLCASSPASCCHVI

A further test has as its target T4, p38-delta (Homo sapiens, UniProt O15264).
T4 construct: purchased Eurofins DiscoverX KINOMEscan
T4 sequence (O15264 1-365): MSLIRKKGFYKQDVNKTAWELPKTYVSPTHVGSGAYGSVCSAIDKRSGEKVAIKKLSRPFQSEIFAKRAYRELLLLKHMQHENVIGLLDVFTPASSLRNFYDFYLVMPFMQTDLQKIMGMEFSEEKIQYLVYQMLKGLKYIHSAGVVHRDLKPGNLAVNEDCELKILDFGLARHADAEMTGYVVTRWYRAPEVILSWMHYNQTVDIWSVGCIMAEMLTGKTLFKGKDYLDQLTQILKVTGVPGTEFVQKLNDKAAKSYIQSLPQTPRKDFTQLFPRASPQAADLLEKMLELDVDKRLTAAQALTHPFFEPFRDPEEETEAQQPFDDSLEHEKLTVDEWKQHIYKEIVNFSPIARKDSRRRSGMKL

The target of a further test is T5, DCAMKL2 (Homo sapiens, UniProt Q8N568).
T5 construct: purchased Eurofins DiscoverX KINOMEscan
T5 sequence (Q8N568 1-766): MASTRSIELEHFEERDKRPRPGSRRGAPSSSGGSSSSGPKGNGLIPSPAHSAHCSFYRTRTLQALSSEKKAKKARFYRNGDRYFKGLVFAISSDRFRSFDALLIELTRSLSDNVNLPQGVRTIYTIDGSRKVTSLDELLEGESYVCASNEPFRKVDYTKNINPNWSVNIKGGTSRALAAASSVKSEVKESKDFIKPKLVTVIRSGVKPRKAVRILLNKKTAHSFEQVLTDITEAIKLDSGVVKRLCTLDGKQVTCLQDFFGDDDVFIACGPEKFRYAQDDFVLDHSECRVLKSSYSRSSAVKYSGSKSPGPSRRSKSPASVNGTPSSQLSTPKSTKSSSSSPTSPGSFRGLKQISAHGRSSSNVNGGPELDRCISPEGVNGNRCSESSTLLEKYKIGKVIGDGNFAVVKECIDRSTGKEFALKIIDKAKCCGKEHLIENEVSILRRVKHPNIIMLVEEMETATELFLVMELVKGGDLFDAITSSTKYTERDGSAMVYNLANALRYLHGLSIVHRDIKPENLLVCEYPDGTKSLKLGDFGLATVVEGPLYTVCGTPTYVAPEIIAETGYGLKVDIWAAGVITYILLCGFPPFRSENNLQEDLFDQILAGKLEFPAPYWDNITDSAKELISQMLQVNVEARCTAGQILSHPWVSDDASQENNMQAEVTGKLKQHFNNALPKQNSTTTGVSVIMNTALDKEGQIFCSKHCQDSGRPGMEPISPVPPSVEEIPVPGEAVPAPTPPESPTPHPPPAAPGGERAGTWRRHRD

Another test concerns the target T6, ROS1 (Homo sapiens, UniProt P08922).
T6 construct: purchased Eurofins DiscoverX KINOMEscan

A further test deals with T7, TIE1 (Homo sapiens, UniProt P35590).
T7 construct: purchased Eurofins DiscoverX KINOMEscan
T7 sequence (P35590 22-1138): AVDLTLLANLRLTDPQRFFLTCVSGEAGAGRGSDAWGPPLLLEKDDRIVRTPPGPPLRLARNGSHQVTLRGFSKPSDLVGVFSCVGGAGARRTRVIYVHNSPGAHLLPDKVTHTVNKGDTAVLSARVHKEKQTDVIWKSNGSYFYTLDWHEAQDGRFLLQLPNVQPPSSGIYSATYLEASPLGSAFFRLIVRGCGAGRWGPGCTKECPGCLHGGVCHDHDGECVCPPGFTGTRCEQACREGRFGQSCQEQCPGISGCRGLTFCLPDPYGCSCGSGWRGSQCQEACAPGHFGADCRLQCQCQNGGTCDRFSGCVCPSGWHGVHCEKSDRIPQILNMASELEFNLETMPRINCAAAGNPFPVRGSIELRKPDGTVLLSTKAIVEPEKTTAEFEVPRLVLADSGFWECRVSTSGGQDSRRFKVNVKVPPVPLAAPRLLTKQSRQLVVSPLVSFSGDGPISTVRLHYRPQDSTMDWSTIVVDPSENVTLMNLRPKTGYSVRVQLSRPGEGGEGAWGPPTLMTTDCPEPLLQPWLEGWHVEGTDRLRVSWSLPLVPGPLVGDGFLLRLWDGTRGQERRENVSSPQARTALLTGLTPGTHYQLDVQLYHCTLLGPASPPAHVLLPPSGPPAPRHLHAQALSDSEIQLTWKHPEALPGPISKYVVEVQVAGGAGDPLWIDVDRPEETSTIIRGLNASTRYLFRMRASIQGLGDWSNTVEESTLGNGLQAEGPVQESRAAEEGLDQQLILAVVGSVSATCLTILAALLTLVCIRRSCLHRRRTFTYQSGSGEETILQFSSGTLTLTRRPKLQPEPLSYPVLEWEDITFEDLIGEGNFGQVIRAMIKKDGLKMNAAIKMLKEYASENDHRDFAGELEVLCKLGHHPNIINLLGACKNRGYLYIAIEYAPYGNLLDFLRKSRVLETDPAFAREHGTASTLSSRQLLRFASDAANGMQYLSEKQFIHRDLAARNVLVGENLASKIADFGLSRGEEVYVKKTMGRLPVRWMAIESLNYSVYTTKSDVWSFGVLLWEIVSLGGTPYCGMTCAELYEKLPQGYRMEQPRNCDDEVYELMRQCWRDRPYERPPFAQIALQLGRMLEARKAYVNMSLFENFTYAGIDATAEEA

T6 sequence (P08922 28-2347): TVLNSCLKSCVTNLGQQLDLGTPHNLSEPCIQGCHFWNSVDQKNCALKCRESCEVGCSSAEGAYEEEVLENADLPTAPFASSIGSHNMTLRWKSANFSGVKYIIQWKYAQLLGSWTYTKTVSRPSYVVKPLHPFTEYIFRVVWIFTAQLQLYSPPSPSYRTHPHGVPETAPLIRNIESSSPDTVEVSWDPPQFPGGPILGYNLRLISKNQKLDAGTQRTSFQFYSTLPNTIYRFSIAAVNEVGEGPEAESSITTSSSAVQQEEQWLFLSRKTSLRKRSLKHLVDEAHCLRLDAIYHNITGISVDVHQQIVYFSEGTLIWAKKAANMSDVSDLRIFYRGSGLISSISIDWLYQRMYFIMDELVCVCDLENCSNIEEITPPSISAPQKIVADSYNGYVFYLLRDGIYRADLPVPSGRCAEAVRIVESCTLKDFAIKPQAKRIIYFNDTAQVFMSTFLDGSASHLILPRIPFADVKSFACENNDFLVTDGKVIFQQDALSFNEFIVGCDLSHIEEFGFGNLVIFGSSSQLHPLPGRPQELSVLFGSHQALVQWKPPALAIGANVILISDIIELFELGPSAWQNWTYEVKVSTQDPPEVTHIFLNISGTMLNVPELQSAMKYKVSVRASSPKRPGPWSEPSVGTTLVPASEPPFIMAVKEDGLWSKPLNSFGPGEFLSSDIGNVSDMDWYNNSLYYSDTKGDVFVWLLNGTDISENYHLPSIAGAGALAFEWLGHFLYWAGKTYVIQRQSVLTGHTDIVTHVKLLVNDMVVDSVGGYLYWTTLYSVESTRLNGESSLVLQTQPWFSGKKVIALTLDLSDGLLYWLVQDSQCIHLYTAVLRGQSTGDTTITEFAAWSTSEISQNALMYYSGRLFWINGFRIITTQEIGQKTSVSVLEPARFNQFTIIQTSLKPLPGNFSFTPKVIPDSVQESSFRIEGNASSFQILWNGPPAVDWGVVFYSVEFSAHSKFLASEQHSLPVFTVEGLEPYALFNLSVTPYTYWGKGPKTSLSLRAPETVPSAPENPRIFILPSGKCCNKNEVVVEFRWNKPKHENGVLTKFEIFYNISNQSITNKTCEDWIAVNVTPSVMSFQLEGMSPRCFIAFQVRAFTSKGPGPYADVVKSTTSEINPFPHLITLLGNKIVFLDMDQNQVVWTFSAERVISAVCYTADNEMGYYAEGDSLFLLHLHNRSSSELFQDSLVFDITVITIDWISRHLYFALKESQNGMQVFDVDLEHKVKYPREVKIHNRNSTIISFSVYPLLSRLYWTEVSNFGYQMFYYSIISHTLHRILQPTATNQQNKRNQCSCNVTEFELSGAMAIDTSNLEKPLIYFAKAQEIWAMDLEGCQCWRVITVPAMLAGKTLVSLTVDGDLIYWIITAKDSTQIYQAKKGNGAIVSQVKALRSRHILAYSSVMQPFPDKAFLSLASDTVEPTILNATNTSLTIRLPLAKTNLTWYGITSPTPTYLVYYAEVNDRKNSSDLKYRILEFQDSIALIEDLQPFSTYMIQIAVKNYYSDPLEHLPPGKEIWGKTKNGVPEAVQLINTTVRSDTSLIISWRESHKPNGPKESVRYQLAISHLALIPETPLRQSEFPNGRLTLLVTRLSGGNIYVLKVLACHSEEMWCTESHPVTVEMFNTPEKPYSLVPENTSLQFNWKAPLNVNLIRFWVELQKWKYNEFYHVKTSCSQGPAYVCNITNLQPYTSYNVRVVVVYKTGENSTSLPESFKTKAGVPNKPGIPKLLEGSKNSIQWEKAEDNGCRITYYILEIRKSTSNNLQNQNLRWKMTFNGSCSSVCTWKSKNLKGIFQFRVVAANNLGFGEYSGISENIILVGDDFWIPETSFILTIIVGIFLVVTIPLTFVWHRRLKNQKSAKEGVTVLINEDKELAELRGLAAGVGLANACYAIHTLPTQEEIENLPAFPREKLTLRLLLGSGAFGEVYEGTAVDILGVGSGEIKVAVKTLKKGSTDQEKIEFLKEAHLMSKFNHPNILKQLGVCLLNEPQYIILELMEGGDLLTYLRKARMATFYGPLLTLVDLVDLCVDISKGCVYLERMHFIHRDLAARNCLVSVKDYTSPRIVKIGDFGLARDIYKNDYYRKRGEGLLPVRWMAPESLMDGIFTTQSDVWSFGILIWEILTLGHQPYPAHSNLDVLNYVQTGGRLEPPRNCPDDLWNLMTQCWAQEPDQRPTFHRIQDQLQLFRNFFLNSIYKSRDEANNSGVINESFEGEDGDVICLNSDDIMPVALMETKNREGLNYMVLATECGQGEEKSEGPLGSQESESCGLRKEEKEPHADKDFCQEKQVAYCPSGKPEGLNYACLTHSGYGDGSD
T1 sequence (O75582 426-687 limits assumed): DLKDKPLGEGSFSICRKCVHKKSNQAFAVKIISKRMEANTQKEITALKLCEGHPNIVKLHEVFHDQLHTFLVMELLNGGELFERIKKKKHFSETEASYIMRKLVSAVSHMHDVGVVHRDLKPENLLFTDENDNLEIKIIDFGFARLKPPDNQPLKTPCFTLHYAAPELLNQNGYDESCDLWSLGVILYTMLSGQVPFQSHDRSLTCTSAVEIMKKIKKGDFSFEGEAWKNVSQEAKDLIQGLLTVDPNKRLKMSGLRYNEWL

As for `Clc1cc(NCC2CC2)c2ncc(-c3ccc4[nH]ncc4c3)n2n1` [compound 2, 6-Chloro-N-(cyclopropylmethyl)-3-(1H-indazol-5-yl)imidazo[1,2-b]pyridazin-8-amine], the remaining binding at 1 µM in test [1] is 93%; at MKK7 it was 92%; on SNRK, 99%; at p38-delta, 89%; on DCAMKL2, 95%; at ROS1, 100%. For the same compound, at TIE1, the remaining binding at 1 µM was 99%.

In the case of `O=C(CN1CCOCC1)N[C@H]1CC[C@H](Nc2cc(Cl)nn3c(-c4ccc5[nH]ncc5c4)cnc23)CC1` [compound 26], the remaining binding at 1 µM was 80% in test [1]; 100% on MKK7; 100% at SNRK; 60% on p38-delta; 92% at DCAMKL2; 100% on ROS1. Moreover, at TIE1, the remaining binding at 1 µM was 67%.

With `CN1CCC(CNc2cc(Cl)nn3c(-c4cc5nc(Nc6ccccc6)[nH]c5cc4F)cnc23)CC1` [compound 31, 6-Chloro-3-(6-fluoro-2-(phenylamino)-1H-benzo[d]imidazol-5-yl)-N-((1-methylpiperidin-4-yl)methyl)imidazo[1,2-b]pyridazin-8-amine], the remaining binding at 1 µM was determined as 99% in test [1]; 93% at MKK7; 79% at SNRK; 72% on p38-delta; 96% on DCAMKL2; 96% on ROS1. Moreover, at TIE1, the remaining binding at 1 µM came to 84%.
